The source of these data is patent publication US6110481A, “Controlled release device based on aqueous-organic partitioning in porous membranes” (Trustees of the Stevens Institute of Technology, priority 1994, dated 2000).

A short description of data set [1]: In vitro release from microporous hollow fibers into stirred water bath. Type of data set: physicochemical. The following applies: 1 μm silicone-coated 240 μm Celgard fibers (with and without wax coating), octanol; experimental vs predicted for uncoated fibers. The protocol:
Hollow fibers prepared as such may then be assembled in any fashion intended for controlled release purposes. Preliminary testing of the release kinetics of a selected agent is carried out by immersing a length of the hollow fiber with sealed ends in a stirred water bath and measuring the concentration of the agent in the water bath as it increased with time.
A coating on the outer surface of the fiber provides additional resistance to mass transfer. […] The controlled release of benzoic acid using silicone-coatedhollow fibers (with and without an additional wax coating) and octanol is shown in FIGS. 4A and 4B. For both Figures, the predicted results are based on a 240 μm uncoated fiber with the same membrane thickness, porosity and tortuosity. In FIG. 4A, a 240 μm Celgard® fiber was coated with a 1 μm silicone coating. In FIG. 4B, a 240 μm Celgard® fiber was coated with a 1 μm silicone coating, and an additional wax coating. In both experiments, the solvent was octanol and the diffusing species, benzoic acid.
Aqueous phase benzoic acid concentration was analyzed by a Hewlett-Packard HPLC model 1090, using a Hypersil ODS C-18 reverse phase column. A 40% acetonitrile -60% water (w/w) carrier and UV detector at 254 nm were used. The samples were injected manually into a […] sample loop. […] The distribution coefficient of benzoic acid between decanol and water was determined experimentally. […]

Data set [2] can be described thus: Distribution coefficient of benzoic acid between decanol and water. It counts as physicochemical. The text has this:
Analytical solutions for non-coated, wetted fibers and for non-coated, non-wetted fibers were developed to predict the aqueous phase benzoic acid concentration as a function of time for nylon fibers as well as Celgard® X-20 […] and 400 μm I.D. fibers, both wetted and non-wetted. Predicted results were compared with experimental data (for wetted fibers only) in FIGS. 1, 2 and 3 for Celgard® X-20 240 μm I.D., Celgard® X-20 400 μm I.D. and Nylon 6 600 μm I.D. fibers, respectively. The hollow fiber dimensions and membrane porosities were supplied by the manufacturer. In the case of the silicone coated fibers, the coating thickness was estimated experimentally. The diffusivity of benzoic acid in decanol was estimated using the Wilke-Chang Equation. The diffusivity of benzoic acid in water was taken from Reid et al., Properties of Gases and Liquids, McGraw Hill Book Co., New York, 1977. […]
Aqueous phase benzoic acid concentration was analyzed by a Hewlett-Packard HPLC model 1090, using a Hypersil ODS C-18 reverse phase column. […] The distribution coefficient of benzoic acid between decanol and water was determined experimentally.

For data set [3] the following is noted: glassy hydrogel matrix, solvent activation system; cited from earlier work.
For data set [4] the following is noted: from Reid et al., 1977, p. 576; cited from earlier work.

For the molecule `O=C(O)c1ccccc1` [benzoic acid], the “effect of fiber coating on time to approach steady state” value in data set [1] is listed as “increases the time required for the system to approach steady state”. Also, the “distribution coefficient (m), ratio of equilibrium solute concentration in organic solvent over that in water” value in data set [2] was around 50. Also, the release kinetics entry in data set [3] is listed as “zero order release kinetics”. Moreover, the “diffusion coefficient in water” value in data set [4] is given as 1.2 × 10^-5 cm^2 /s.

Consider `Cn1c(=O)c2[nH]cnc2n(C)c1=O` [theophylline], for which, in data set [3], the release kinetics result was “zero order release kinetics”.
